# Experimental data published in patent US20240099967A1, “INHALABLE COMPOSITION OF CLOFAZIMINE AND METHODS OF USE THEREOF” (priority 2017, published 2024).
# What was measured:
# J774.A1 macrophages = assay: Flow cytometric quantification of clofazimine uptake and biotransformation to liquid crystals; format: cell-based, murine
# [1] = Geometric particle size distribution by HELOS laser diffraction with RODOS dispersion; format: physicochemical; conditions: averaged n = 3
# [2] = system: Mycobacterium leprae, Mycobacterium avium complex (MAC), and M. tuberculosis; conditions: against mycobacterium such as M. leprae; cited from earlier work
# [3] = Sabnis et al., 2015; cited from earlier work
Compound,"cells fluorescent at 660 nm emission (biotransformation to liquid crystals) (J774.A1 macrophages; J774.A1, 24 hours exposure)","cells containing drug, fluorescence at 610 nm emission (crystalline clofazimine) (J774.A1 macrophages; J774.A1, 24 hours exposure, 10,000 cells)",cell proliferation/viability compared to control (J774.A1 cells),Span [1],X10 ([1]; first column),X10 ([1]; second column),X10 ([1]; third column),minimum inhibitory concentration (MIC) [2],clofazimine solution in methanol that can be formed [3]
CC(C)/N=c1\cc2n(-c3ccc(Cl)cc3)c3ccccc3nc-2cc1Nc1ccc(Cl)cc1 [solubilized clofazimine],0.21%,2.48%,significant decrease,,,,,,
"CC(C)N=c1cc2n(-c3ccc(Cl)cc3)c3ccccc3nc-2cc1Nc1ccc(Cl)cc1 [clofazimine, N,5-bis(4-chlorophenyl)-3-(1-methylethylimino)-5H-phenazin-2-amine]",,,,2.62,1.55 μm,7.90 μm,21.96 μm,0.125 to 2 µg/mL,0.1%
